In US20100040623A1, “NEURITOGENIC AND NEURONAL SURVIVAL PROMOTING PEPTIDES DERIVED FROM THE FAMILY OF S-100 PROTEINS” (priority 2005, published 2010):

Assays:
[1] = tested on: focal brain injury on the right fronto-parietal cortex; experiment: Traumatic brain injury (cryolesion): TUNEL, GFAP, PCNA; type: in vivo, Rats and mice; details: 10 mg/kg s.c. at day -1, 1 and 2; post-lesion day 4
Protocol: A focal brain injury on the right fronto-parietal cortex was made by applying a piece of dry-ice (−78° C.) directly onto the skull for 30 seconds in mice and 60 seconds in rats, as previously described in details (Penkowa et al., 2003).
Histochemistry and immunohistochemistry were performed on sections cut from organs taken from fixated animals. Rats and mice were deeply anesthetized with Brietal and flushed by cardiac perfusion with saline containing heparine (0.9% NaCl, 3 ml/L 5000IU heparine) for 2 minutes followed by fixation with Zamboni's fixative (pH 7.4) for 4-8 minutes depending on the size of the animal. For immunohistochemical investigation, brain were dissected and postfixed in Zamboni's for 2-3 hours, dehydraded in graded alcohol followed by xylol and subsequently embedded in paraffin before being cut in 3 μm frontal sections throughout the entire area of the cryo lesion. For heat-induced epitope retrieval, the sections were boiled in citrate buffer (pH 6 or 9) in a microwave oven for 10 minutes followed by incubation in 10% goat serum (In Vitro, Fredensborg, DK) or donkey serum (code BP 005.1; The Binding Site, Birmingham, UK) in tris buffered saline (TBS)/Nonidet P-40 (0.01%) for 30 minutes at room temperature. Sections with mouse tissue used for incubation with monoclonal mouse-derived antibodies were also incubated with Blocking Solutions A+B from the HistoMouse-SP kit to quench endogenous mouse IgG (Zymed, Calif., USA).
Following treatment as described above, sections were incubated overnight at 5° C. with one of the following primary antibodies: polyclonal rabbit anti-cow glial fibrillary acidic protein (GFAP) 1:250 (a marker for astrocytes; DakoCytomation); monoclonal mouse anti-rat proliferating cellular nuclear antigen (PCNA) 1:10 (marking proliferating cell nuclear antigen/cell proliferation; DakoCytomation). The primary antibody was detected with biotynilated secondary antibodies, incubated with streptavidinbiotin-peroxidase complex for 30 min.
Terminal deoxynucleotidyl transferase (TdT)-mediated deoxyuridine triphosphate (dUTP)-biotin nick end labelling (TUNEL) was performed using the Fragment End Labeling (FragEL™) Detection Kit (Calbiochem, USA, code QIA33). The FragEL kit contains all the materials used below and each step was performed according to the manufacturer's recommendations. The tissue was processed and rehydrated as mentioned above, and sections were incubated with 20 µg/ml proteinase K for 20 min to strip off nuclear proteins. After immersion in equilibration buffer for 20 min, sections were incubated with TdT and biotin-labeled deoxynucleotids (dNTP-biotin) in a humified chamber at 37° C. for 1.5 hr. This was followed by wash buffer and the stop solution for 5 min at room temperature to stop the reaction. After washing in TBS and incubation in blocking buffer for 10 min, the sections were incubated with Peroxidase-Streptavidin for 30 min and afterwards, DAB was used as chromogen. The sections were counterstained with methyl-green. Negative control sections were treated similarly but incubated in the absence of TdT enzyme or dNTP-biotin or Peroxidase-Streptavidin. We also compared our sections with positive control slides provided in the FragEL Detection Kit. Furthermore, TUNEL was compared with other stainings for apoptosis (activated caspase-3, cytochrome-c and TNF[…]-R1). In addition, the morphologic criteria for apoptosis, i.e. cell shrinkage, formation of apoptotic bodies, membrane blebbing, no loss of cellular integrity, compaction of chromatin into uniformly dense masses, were evaluated.
In addition to morphological evaluation, quantification (cellular counts) of some of the variables, i.e. GFAP-positive cells, the area of GFAP-immunoreactivity, % of TUNEL-positive cells, % of proliferating cells, were analyzed. The analysis was carried out from the penumbra area of 3 μm brain sections for statistical analysis of the results. […]

[2] = tested on: primary hippocampal neurons; experiment: Neurite outgrowth from primary hippocampal neurons; type: cell-based, Wistar rat; details: for stimulation of neurite outgrowth in vitro (conclusion): summary statement; for neurite outgrowth from hippocampal primary neurons (average neurite length): treated with various concentrations of peptide for 24 hours
Protocol: (§1) Dissociated hippocampal and cerebellar (CGN) neurons were isolated from Wistar rat embryos at embryonic day 19 or newborn rats as previously described by Rønn et al. (1999). Briefly, hippocampus was isolated from the brain in ice cold modified Krebs Ringer solution, cleared of blood vessels, roughly homogenised by chopping and then trypsinised. The dissociated cells were washed in the presence of DNAse 1 and soybean trypsin inhibitor. Postnatal hippocampal neurons were plated at a density of 10,000 cells/cm^2 on uncoated 8-well permanox Lab-Tek chamber slides in Neurobasal medium supplemented with 0.4% (w/v) bovine serum albumin (BSA; Sigma-Aldrich), 2% (v/v) B27 Neurobasal supplement, 1% (v/v) glutamax, 100 U/ml penicillin, 100 μg/ml streptomycin and 2% 1 M HEPES (all from Gibco, BRL). After 24 hours, the neurons were fixed with 4% (v/v) formaldehyde for 20 minutes and thereafter immunostained using primary rabbit antibodies against GAP-43 and Alexa Fluor secondary goat anti-rabbit Ig antibodies. Images of at least 200 neurons for each group in each individual experiment were obtained systematically by computer assisted fluorescence microscopy as previously described (Rønn et al., 2000). Briefly, a Nikon Diaphot inverted microscope with a Nikon Plan 20× objective (Nikon, Tokyo, Japan) coupled to a video camera (Grundig Electronics, Germany) was used for recordings. A software package Prima developed at the Protein Laboratory (Copenhagen, Denmark) was used to make a stereologically based determination of neurite length (Rønn et al., 2000).
(§2) Neuronal cell cultures were treated with various concentrations of a peptide for 24 hours, and the average neurite length was evaluated as described above. […] Thus peptide segments number 3 and number 6 from various members of the S100 protein family may represent potent pharmacological tools to induce neuronal differentiation and axon regeneration.

cerebellar (CGN) neurons = experiment: Neurite outgrowth from primary cerebellar neurons; type: cell-based, Wistar rat; details: treated with various concentrations of peptide for 24 hours
Protocol: as §1, §2

Akt = experiment: Phosphorylation of Akt in primary hippocampal neurons (PAGE method); type: cell-based; details: neurons cultured 6 hours, stimulated 15 minutes
Protocol: (§3) Primary hippocampal neurons cultured for 6 hours were stimulated with H3 or H6 for 15 minutes. Thereafter the phosphorylation level of the three intracellular messengers involved in neurite outgrowth and survival, Akt, CREB, and ERK, was determined using the PAGE method.

CREB = experiment: Phosphorylation of CREB in primary hippocampal neurons (PAGE method); type: cell-based; details: neurons cultured 6 hours, stimulated 15 minutes
Protocol: as §3

ERK = experiment: Phosphorylation of ERK in primary hippocampal neurons (PAGE method); type: cell-based; details: neurons cultured 6 hours, stimulated 15 minutes
Protocol: as §3

[3] = tested on: cultured hippocampal neurons; experiment: Intracellular Ca2+ concentration, fura-2 loaded neurons; type: cell-based; details: fura-2 ratiometric dye
[4] = tested on: kainic acid (KA)-induced toxicity; experiment: Kainic acid-induced toxicity (seizures, mortality); type: in vivo, Male C57BL/6J mice; details: peptide 10 mg/kg daily from day -2; for amount of seizures: 20 mg/kg KA; for profile of seizures (severity): 30 mg/kg KA
Protocol: Male C57BL/6J mice were injected with 10 mg/kg H3 or H6 daily starting from day-2 prior to kainic acid treatment. At day 0 the animals were injected 30 mg/kg KA in order to induce severe seizures, or 20 mg/kg KA in order to induce mild seizures and prevent excessive mortality. Latency and seizure severity were scored for 2 h postinjection by using a numerical scale of 0 to 6: 0—immobility; 1—facial automatism; 2—head nodding; 3—forelimb clonus; 4—rearing; 5—generalized convulsions; 6—death. Control animals received s.c injection of vehicle.

sciatic nerve crush = experiment: Functional recovery after sciatic nerve crush (Sciatic Function Index); type: in vivo, Wistar rats; details: 10 mg/kg daily for 18 days
Protocol: Nerve crush of sciatic nerve was performed as follows. Before surgery, animals were anesthetized with subcutaneous injection of a Fenthanil/Droperidol/Medazolam (0.8 ml per 100 g). The right hind limb was shaved and swabbed with antiseptic solution. A longitudinal cutaneous incision was made in the back of the thigh. Dissection was carried out along a plane separating the hamstring and gluteal muscles to expose the sciatic nerve. Careful dissection was performed to isolate the sciatic nerve from the surrounding connective tissue over a length of 2 to 2.5 cm. The sciatic nerve was unilaterally crushed twice in the same place (0.5 cm upper trifurcation) for a 30 sec using a locking surgical needle holder. The place of the crush was labelled with 5-0 suture material attached to the epineurium. […] The bottom of the corridor was lined with paper, upon which the hind pawprints of the rat were recorded. […] Several prints of each foot were inspected, and the best corresponding pair of prints from experimental (E) and normal (N) legs were measured to the nearest millimeter, using a caliper. Three footprint parameters were measured: distance from the heel to the third toe, print length (PL), the distance between the first and fifth toe, toe spread (TS), and distance between the second and fourth toe, the intermediary toe spread (IT). […]

hippocampal neurons = details: Novitskaya et al., 2000; cited from earlier work

DEAAFQKLMSNLD [A4H4, tetrameric peptide (hekatone) representing region 4 of S100A4]
proliferation of neural progenitor cells [1]: strongly induced proliferation

HYHTHKE [A12H6, tetrameric peptide (hekatone) representing region 6 of S100A12]
stimulation of neurite outgrowth in vitro (conclusion) [2]: potent stimulators of neurite outgrowth

KELLTRELPSFLGKRT [A4H3, tetrameric peptide (hekatone) representing region 3 of S100A4]
stimulation of neurite outgrowth in vitro (conclusion) [2]: potent stimulators of neurite outgrowth | neurite outgrowth from hippocampal primary neurons (average neurite length) [2]: strongly induced neurite outgrowth | neurite outgrowth from cerebellar primary neurons (average neurite length) (cerebellar (CGN) neurons): strongly induced neurite outgrowth | phosphorylation level of Akt (Akt): significantly increased phosphorylation | phosphorylation level of CREB (CREB): significantly increased phosphorylation | phosphorylation level of ERK (ERK): significantly increased phosphorylation | level of intracellular Ca2+ ([Ca2+]i) [3]: but not H3 significantly increased | amount of seizures [4]: decreased the amount of seizures | profile of seizures (severity) [4]: towards less severe seizures types | recovery of the motor function of the injured limb (SFI) (sciatic nerve crush): strongly promoted the recovery | area of GFAP-immunoreactivity (astrogliosis) [1]: increase | cell death (apoptosis, DNA fragmentation/TUNEL) in the cortex induced by cryolesion [1]: protected cells in the cortex from cell death | number of GFAP-positive cells (astrogliosis) [1]: increase

KQLLTKELANTIKNIK [A12H3, tetrameric peptide (hekatone) representing region 3 of S100A12]
neurite outgrowth from hippocampal primary neurons (average neurite length) [2]: strongly induced neurite outgrowth | neurite outgrowth from cerebellar primary neurons (average neurite length) (cerebellar (CGN) neurons): strongly induced neurite outgrowth

NEFFEGFPDKQPRKK [A4H6, tetrameric peptide (hekatone) representing region 6 of S100A4]
stimulation of neurite outgrowth in vitro (conclusion) [2]: potent stimulators of neurite outgrowth | neurite outgrowth from hippocampal primary neurons (average neurite length) [2]: strongly induced neurite outgrowth | neurite outgrowth from cerebellar primary neurons (average neurite length) (cerebellar (CGN) neurons): strongly induced neurite outgrowth | phosphorylation level of Akt (Akt): significantly increased phosphorylation | phosphorylation level of CREB (CREB): significantly increased phosphorylation | phosphorylation level of ERK (ERK): significantly increased phosphorylation | level of intracellular Ca2+ ([Ca2+]i) [3]: significantly increased | amount of seizures [4]: decreased the amount of seizures | profile of seizures (severity) [4]: towards less severe seizures types | area of GFAP-immunoreactivity (astrogliosis) [1]: increase | cell death (apoptosis, DNA fragmentation/TUNEL) in the cortex induced by cryolesion [1]: protected cells in the cortex from cell death | number of GFAP-positive cells (astrogliosis) [1]: increase

S100A4: S100 family Ca2+-binding protein S100A4 (also termed Mts1)
neurite outgrowth in hippocampal neurons in vitro (hippocampal neurons): potent promoter of neurite outgrowth
